This is an account of results in patent US7598244B2, “[1,2,4]triazolo[1,5,a]pyrimidin-2-ylurea derivative and use thereof” (Nippon Kayaku Kabushiki Kaisha, priority 2003, dated 2009).

The structures appear in SMILES notation.

This experiment relates to MHC class I molecules of T1 cells (human lymphoma cell line 174×CEM.). As to the kind of experiment: Effect on expression of MHC class I from T1 cells (flow cytometry, MFI). The format is cell-based. Conditions: 3 days culture. On the procedure:
Effect on Expression of MHC Class I from T1 Cells (Human Lymphoma Cell Line 174×CEM.)
Using a 96-well flat bottom microplate, T1 cells (5.7×10^3 cells/200 μl/well) were cultured in an RPMI 1640 medium (Iwaki Glass) containing 10% fetal bovine serum (hereinafter abbreviated as FBS; Iruvine Scientific) in an incubator containing 5% carbon dioxide at 37° C. for 3 days, in the presence of a test compound having each concentration obtained by dilution at a common ratio route of 10 from 400 μM. After completion of the culture, the cells were stained with fluoroisothiocyanate-labeled mouse anti-human MHC class I monoclonal antibody (an antibody produced from the cell line W6/32 (ATCC No. CRL 1991)). The mean fluorescence intensity of the stained cells (hereinafter referred to as MFI) was measured using flow cytometry FACScan (BD). The obtained value was defined as an expression level of MHC class I molecules. A test compound concentration necessary for suppressing 20% of the expression level of MHC class I molecules (EC20 value) was calculated using the following formula (1).
[formula] • Eexp: MFI of cultured cells containing test compound after being stained with antibody • Cexp: MFI of cultured cells containing no test compounds after being stained with antibody
On the technique in general: Flow cytometry measures light scatter and fluorescence of single cells or particles in a stream.

On to `C[C@H](NC(=O)Nc1nc2nccc(-c3cccs3)n2n1)c1ccccc1` [Example 165], for which the “EC20 (concentration necessary for suppressing 20% of the expression level of MHC class I molecules)” value was found to be 300 nM.
As to `COc1cccc([C@H](C)NC(=O)Nc2nc3nccc(-c4ccc(OCCCN5CCOCC5)cc4)n3n2)c1` [Example 248], the “EC20 (concentration necessary for suppressing 20% of the expression level of MHC class I molecules)” value was 14 nM.
Regarding `COc1ccc(-c2ccnc3nc(NC(=O)NC(C)COCC4CCOCC4)nn23)cc1` (centres unmarked) [Example 325], the “EC20 (concentration necessary for suppressing 20% of the expression level of MHC class I molecules)” value is 70 nM.
With `COC(=O)C1CCC(NC(=O)Nc2nc3nccc(-c4ccc(OC)cc4)n3n2)CC1` (centres unmarked) [Example 167], the “EC20 (concentration necessary for suppressing 20% of the expression level of MHC class I molecules)” value was 200 nM.
Under `CCOCC[C@H](C)NC(=O)Nc1nc2nccc(-c3ccc(O)cc3)n2n1` [Example 329] stands 60 nM; under `COc1ccc(-c2ccnc3nc(NC(=O)NCCc4cccnc4)nn23)cc1` [Example 104], 430 nM; under `CC(NC(=O)Nc1nc2nccc(-c3cccs3)n2n1)c1ccc2c(c1)OCO2` (centres unmarked) [Example 295], 790 nM.
Under `COc1ccc(-c2ccnc3nc(NC(=O)NCCC(=O)Nc4ccccc4)nn23)cc1` [Example 156] stands 50 nM; under `COc1cccc([C@H](C)NC(=O)Nc2nc3nccc(-c4cccc(OCCCN5CCOCC5)c4)n3n2)c1` [Example 249], 70 nM.
With `COc1ccc(-c2ccnc3nc(NC(=O)N[C@H](C(=O)Nc4ccccc4)C(C)C)nn23)cc1` [Example 088], the “EC20 (concentration necessary for suppressing 20% of the expression level of MHC class I molecules)” value is 150 nM.
In the case of `COc1cccc([C@H](C)NC(=O)Nc2nc3nccc(-c4ccc(OCC5CCCO5)cc4)n3n2)c1` (some centres unmarked) [Example 224] it was 90 nM; in that of `COc1ccc(-c2ccnc3nc(NC(=O)NCCCc4ccccc4)nn23)cc1` [Example 102], 190 nM; in that of `CC(C)NC(=O)Nc1nc2nccc(-c3cccc(OCCN4CCOCC4)c3)n2n1` [Example 189], 590 nM.
Under `COCCNC(=O)[C@@H](NC(=O)Nc1nc2nccc(-c3ccc(OC)cc3)n2n1)C(C)C` [Example 096] stands 550 nM; under `COc1ccc(-c2ccnc3nc(NC(=O)N[C@@H](Cc4ccccc4)C(=O)OC(C)(C)C)nn23)cc1` [Example 112], 850 nM; under `COc1ccc(-c2ccnc3nc(NC(=O)N[C@@H](C)C4CCCCC4)nn23)cc1` [Example 218], 180 nM.
Consider `CC[C@H](NC(=O)Nc1nc2nccc(-c3ccc(OC)cc3)n2n1)C(=O)N1CCOCC1` [Example 149], for which the “EC20 (concentration necessary for suppressing 20% of the expression level of MHC class I molecules)” value came to 630 nM.
Under `COc1ccc(-c2ccnc3nc(NC(=O)N[C@@H](C)CCc4ccccc4)nn23)cc1` [Example 127] stands 80 nM; under `C[C@H](NC(=O)Nc1nc2nccc(-c3ccc(O)cc3)n2n1)c1cccc(O)c1` [Example 266], 200 nM.
Regarding `CCOCCC(C)NC(=O)Nc1nc2nccc(-c3ccc4c(c3)OCO4)n2n1` (centres unmarked) [Example 327, 1-[7-(3,4-methylenedioxyphenyl)-[1,2,4]triazolo[1,5-a]pyrimidin-2-yl]-3-(3-ethoxy-1-methylpropyl)urea], the “EC20 (concentration necessary for suppressing 20% of the expression level of MHC class I molecules)” value came out at 150 nM.
Under `COCCOc1ccc(-c2ccnc3nc(NC(=O)N[C@@H](C)CCCC(C)C)nn23)cc1` [Example 262, (S)-1-(1,5-dimethylhexyl)-3-{7-[4-(2-methoxyethoxy)phenyl]-[1,2,4]triazolo[1,5-a]pyrimidin-2-yl}urea] stands 30 nM.
As to `COCCCC[C@H](C)NC(=O)Nc1nc2nccc(-c3ccc(OC)cc3)n2n1` [Example 233], the “EC20 (concentration necessary for suppressing 20% of the expression level of MHC class I molecules)” value came to 40 nM.
For the compound `CCC(C)NC(=O)Nc1nc2nccc(-c3ccc(OC)cc3)n2n1` (centres unmarked) [Example 100], the “EC20 (concentration necessary for suppressing 20% of the expression level of MHC class I molecules)” value worked out at 320 nM.
In the case of `CNC(=O)C1CCCC(NC(=O)Nc2nc3nccc(-c4ccc(OC)cc4)n3n2)C1` (centres unmarked) [Example 174] it was 330 nM; in that of `CCNC(=O)[C@@H](NC(=O)Nc1nc2nccc(-c3ccc(OC)cc3)n2n1)C(C)C` [Example 090], 400 nM; in that of `COCCN(CCOC)C(=O)[C@@H](NC(=O)Nc1nc2nccc(-c3ccc(OC)cc3)n2n1)C(C)C` [Example 097], 470 nM.
Under `CC(C)NC(=O)Nc1nc2nccc(-c3ccc4c(c3)OCO4)n2n1` [Example 087] stands 780 nM.
In the case of `COc1cccc([C@H](C)NC(=O)Nc2nc3nccc(-c4ccc(OCC5CCOCC5)cc4)n3n2)c1` [Example 322] it was 20 nM; in that of `CCCC(C)NC(=O)Nc1nc2nccc(-c3cccs3)n2n1` (centres unmarked) [Example 284], 190 nM; in that of `COCCOc1ccc(-c2ccnc3nc(NC(=O)N[C@@H](C)CCCC(C)C)nn23)cc1OCCOC` [Example 252], 50 nM.
With `COc1cccc([C@H](C)NC(=O)Nc2nc3nccc(-c4ccc(OCc5ccccc5)cc4)n3n2)c1` [Example 222, (S)-1-[7-(4-benzyloxyphenyl)-[1,2,4]triazolo[1,5-a]pyrimidin-2-yl]-3-[1-(3-methoxyphenyl)ethyl]urea], the “EC20 (concentration necessary for suppressing 20% of the expression level of MHC class I molecules)” value stood at 100 nM.
In the case of `O=C(Nc1nc2nccc(-c3cccs3)n2n1)NC1CCCC1` [Example 028] it was 152 nM; in that of `CC(C)NC(=O)Nc1nc2nccc(-c3cccc(OCc4ccncc4)c3)n2n1` [Example 193], 310 nM; in that of `CC(C)CCC[C@H](C)NC(=O)Nc1nc2nccc(-c3cccc(O)c3)n2n1` [Example 257], 30 nM.
In the case of `COc1cccc([C@H](C)NC(=O)Nc2nc3nccc(-c4cccc(OCCCN(C)C)c4)n3n2)c1` [Example 221], the “EC20 (concentration necessary for suppressing 20% of the expression level of MHC class I molecules)” value came to 120 nM.
Under `COc1cccc([C@H](C)NC(=O)Nc2nc3nccc(-c4cccc(O)c4)n3n2)c1` [Example 200] stands 70 nM.
In the case of `COc1cc(C(C)NC(=O)Nc2nc3nccc(-c4cccc(Cl)c4)n3n2)cc(OC)c1OC` (centres unmarked) [Example 305] it was 520 nM; in that of `COc1ccc(-c2ccnc3nc(NC(=O)NC(C)CCC(C)C)nn23)cc1` (racemic) [Example 236], 80 nM; in that of `COc1ccc(-c2ccnc3nc(NC(=O)NC(C)Cc4ccc(Cl)cc4)nn23)cc1` (racemic) [Example 142], 60 nM.
Under `COCCOCCOCCOc1cccc(-c2ccnc3nc(NC(=O)N[C@@H](C)CCCC(C)C)nn23)c1` [Example 265] stands 110 nM.
As to `COC(=O)[C@@H](C)NC(=O)Nc1nc2nccc(-c3ccc(OC)cc3)n2n1` [Example 126], the “EC20 (concentration necessary for suppressing 20% of the expression level of MHC class I molecules)” value amounted to 320 nM.
Under `COc1cccc([C@H](C)NC(=O)Nc2nc3nccc(-c4cccc(OCCc5ccccn5)c4)n3n2)c1` [Example 208] stands 180 nM.
In the case of `COc1ccc(-c2ccnc3nc(NC(=O)NC(C)CCCN(C)C(=O)OC(C)(C)C)nn23)cc1` (centres unmarked) [Example 282] it was 58 nM.
In the case of `COCCOc1ccc(-c2ccnc3nc(NC(=O)N[C@@H](C)c4cccc(OC)c4)nn23)cc1` [Example 244, (S)-1-{7-[4-(2-methoxyethoxy)phenyl]-[1,2,4]triazolo[1,5-a]pyrimidin-2-yl}-3-[1-(3-methoxyphenyl)ethyl]urea] it was 19 nM.
With `COCCCC(C)NC(=O)Nc1nc2nccc(-c3ccc(OC)cc3)n2n1` (centres unmarked) [Example 314], the “EC20 (concentration necessary for suppressing 20% of the expression level of MHC class I molecules)” value came to 80 nM.
Turning to `CC(C)COc1cccc(-c2ccnc3nc(NC(=O)NC4CCCCC4)nn23)c1` [Example 108], the “EC20 (concentration necessary for suppressing 20% of the expression level of MHC class I molecules)” value is 130 nM.
In the case of `COc1ccc(-c2ccnc3nc(NC(=O)NCc4cc(OC)c(OC)c(OC)c4)nn23)cc1` [Example 247] it was 37 nM.
